Source: ChEMBL document CHEMBL1125936, “Synthesis and biological evaluation of 4-purinylpyrrolidine nucleosides” (J Med Chem, 1991)
One block for each molecule: values may come before it.

Key:
[1] = test system: Tumor Cell line; test: The compound was tested for inhibitory activity against panel of human tumor cell lines; Range = 0.08-14.02 uM; type: functional, cell-based
[2] = test system: Human immunodeficiency virus; test: The compound was tested for anti-HIV activity; Range = 5.0-15.0 uM; type: functional; conditions: Human immunodeficiency virus 1; read-out: ED50 (the source's name)
[3] = molecular target: Adenosine deaminase (Bos taurus) (UniProt P56658); test: Binding affinity towards adenosine deaminase
Chain of Adenosine deaminase (Bos taurus) (P56658 whole entry, looked up): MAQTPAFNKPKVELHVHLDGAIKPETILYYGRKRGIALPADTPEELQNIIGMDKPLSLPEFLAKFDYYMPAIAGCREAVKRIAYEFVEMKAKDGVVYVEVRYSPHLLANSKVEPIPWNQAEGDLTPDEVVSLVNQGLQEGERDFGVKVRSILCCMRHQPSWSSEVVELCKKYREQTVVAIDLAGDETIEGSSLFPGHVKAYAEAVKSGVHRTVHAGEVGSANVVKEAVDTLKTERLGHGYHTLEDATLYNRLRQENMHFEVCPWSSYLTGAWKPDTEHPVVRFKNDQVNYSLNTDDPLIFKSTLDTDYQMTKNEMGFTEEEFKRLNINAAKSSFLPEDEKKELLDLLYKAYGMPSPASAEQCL

IC50 [1]: 80 nM
Compound: Cc1cn([C@@H]2C[C@H](CO)N(O)C2)c(=O)[nH]c1=O

EC50 [2]: 5 µM
Compound: Nc1ncnc2c1ncn2[C@H]1CO[C@@H](CO)C1

Ki [3]: 85 µM
Compound: Nc1ncnc2c1ncn2[C@H]1CN[C@@H](CO)C1
